# Measured values taken from ChEMBL document CHEMBL1201862, “PubChem BioAssay data set” (2004).
#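 Briefly, cells in 96-well plates were exposed to five compound concentrations for 48 h, and endpoints were estimated by linear interpolation. GI50 is the concentration that inhibits growth by half.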 Calls of active or inactive are those of the source. No stated cut-off is given here; in the data, active = GI50 up to about 1.1 µM and inactive = higher.
# Legend:
# Experiment in all cases: DTP human tumour cell line panel, 48 h
# [1] = test system: 786-0
# [2] = test system: A498
# [3] = test system: A549
# [4] = test system: ACHN
# [5] = test system: CAKI-1
# [6] = test system: CCRF-CEM
# [7] = test system: COLO 205
# [8] = test system: DLD-1
# [9] = test system: DMS-273
# [10] = test system: EKVX
# [11] = test system: HCC 2998
# [12] = test system: HCT-116
# [13] = test system: HCT-15
# [14] = test system: HL-60
# [15] = test system: HOP-18
# [16] = test system: HOP-62
# [17] = test system: HOP-92
# [18] = test system: HT-29
# [19] = test system: IGROV-1
# [20] = test system: K562
# [21] = test system: KM-20L2
# [22] = test system: KM12
# [23] = test system: LOX IMVI
# [24] = test system: LXFL 529
# [25] = test system: M14
# [26] = test system: M19-MEL
# [27] = test system: MOLT-4
# [28] = test system: Malme-3M
# [29] = test system: NCI-H226
# [30] = test system: NCI-H23
# [31] = test system: NCI-H460
# [32] = test system: NCI-H522
# [33] = test system: OVCAR-4
# [34] = test system: OVCAR-5
# [35] = test system: OVCAR-8
# [36] = test system: RPMI-8226
# [37] = test system: RXF 393
# [38] = test system: RXF 631
# [39] = test system: SF-268
# [40] = test system: SF-295
# [41] = test system: SF-539
# [42] = test system: SK-MEL-28
# [43] = test system: SK-MEL-2
# [44] = test system: SK-MEL-5
# [45] = test system: SK-OV-3
# [46] = test system: SN12C
# [47] = test system: SNB-19
# [48] = test system: SNB-75
# [49] = test system: SNB-78
# [50] = test system: SR
# [51] = test system: SW-620
# [52] = test system: TK-10
# [53] = test system: U-251
# [54] = test system: UACC-257
# [55] = test system: UACC-62
# [56] = test system: UO-31
# [57] = test system: XF498
# [58] = test system: DMS-114
# [59] = test system: OVCAR-3
smiles,measurement,setting,value
CC(=O)c1ccc(NC(=O)C(=O)C(C(=O)/C=C/c2ccccc2)C2OC(=O)c3ccccc32)cc1 (centres undefined),GI50,[1],> 100 µM (inactive)
same,GI50,[2],> 100 µM (inactive)
same,GI50,[3],> 100 µM (inactive)
same,GI50,[4],> 100 µM (inactive)
same,GI50,[5],> 100 µM (inactive)
same,GI50,[6],53.5 µM (inactive)
same,GI50,[7],> 100 µM (inactive)
same,GI50,[8],> 100 µM (inactive)
same,GI50,[9],> 100 µM (inactive)
same,GI50,[10],> 100 µM (inactive)
same,GI50,[11],> 100 µM (inactive)
same,GI50,[12],> 100 µM (inactive)
same,GI50,[13],> 100 µM
same,GI50,[14],> 100 µM (inactive)
same,GI50,[15],> 100 µM (inactive)
same,GI50,[16],> 100 µM (inactive)
same,GI50,[17],> 100 µM (inactive)
same,GI50,[18],> 100 µM (inactive)
same,GI50,[19],> 100 µM (inactive)
same,GI50,[20],74.5 µM (inactive)
same,GI50,[21],> 100 µM (inactive)
same,GI50,[22],> 100 µM (inactive)
same,GI50,[23],> 100 µM (inactive)
same,GI50,[24],96.6 µM (inactive)
same,GI50,[25],> 100 µM (inactive)
same,GI50,[26],> 100 µM (inactive)
same,GI50,[27],77.4 µM (inactive)
same,GI50,[28],> 100 µM (inactive)
same,GI50,[29],> 100 µM (inactive)
same,GI50,[30],> 100 µM (inactive)
same,GI50,[31],> 100 µM (inactive)
same,GI50,[32],> 100 µM (inactive)
same,GI50,[33],> 100 µM (inactive)
same,GI50,[34],> 100 µM (inactive)
same,GI50,[35],> 100 µM (inactive)
same,GI50,[36],54.2 µM (inactive)
same,GI50,[37],> 100 µM (inactive)
same,GI50,[38],> 100 µM (inactive)
same,GI50,[39],> 100 µM (inactive)
same,GI50,[40],> 100 µM (inactive)
same,GI50,[41],> 100 µM (inactive)
same,GI50,[42],> 100 µM (inactive)
same,GI50,[43],> 100 µM (inactive)
same,GI50,[44],> 100 µM (inactive)
same,GI50,[45],> 100 µM (inactive)
same,GI50,[46],> 100 µM (inactive)
same,GI50,[47],> 100 µM (inactive)
same,GI50,[48],> 100 µM (inactive)
same,GI50,[49],> 100 µM (inactive)
same,GI50,[50],60.8 µM (inactive)
same,GI50,[51],> 100 µM (inactive)
same,GI50,[52],> 100 µM (inactive)
same,GI50,[53],83 µM (inactive)
same,GI50,[54],> 100 µM (inactive)
same,GI50,[55],> 100 µM (inactive)
same,GI50,[56],> 100 µM (inactive)
same,GI50,[57],> 100 µM (inactive)
CCCCCCC(O)C/C=C/CCCCCC/C(C(=O)OC)=C(/O)C(=O)OCC (centres undefined),GI50,[1],> 100 µM (inactive)
same,GI50,[2],> 100 µM (inactive)
same,GI50,[3],> 100 µM (inactive)
same,GI50,[4],> 100 µM (inactive)
same,GI50,[5],> 100 µM (inactive)
same,GI50,[6],> 100 µM (inactive)
same,GI50,[7],> 100 µM (inactive)
same,GI50,[8],> 100 µM (inactive)
same,GI50,[58],> 100 µM (inactive)
same,GI50,[9],> 100 µM (inactive)
same,GI50,[10],> 100 µM (inactive)
same,GI50,[11],> 100 µM (inactive)
same,GI50,[12],> 100 µM (inactive)
same,GI50,[13],> 100 µM
same,GI50,[14],67.1 µM (inactive)
same,GI50,[15],> 100 µM (inactive)
same,GI50,[16],> 100 µM (inactive)
same,GI50,[17],> 100 µM (inactive)
same,GI50,[18],> 100 µM (inactive)
same,GI50,[19],> 100 µM (inactive)
same,GI50,[20],97.7 µM (inactive)
same,GI50,[22],> 100 µM (inactive)
same,GI50,[23],> 100 µM (inactive)
same,GI50,[24],> 100 µM (inactive)
same,GI50,[25],> 100 µM (inactive)
same,GI50,[26],> 100 µM (inactive)
same,GI50,[27],72.8 µM (inactive)
same,GI50,[28],> 100 µM (inactive)
same,GI50,[29],> 100 µM (inactive)
same,GI50,[30],> 100 µM (inactive)
same,GI50,[31],> 100 µM (inactive)
same,GI50,[32],85.1 µM (inactive)
same,GI50,[59],> 100 µM (inactive)
same,GI50,[33],> 100 µM (inactive)
same,GI50,[34],> 100 µM (inactive)
same,GI50,[35],> 100 µM (inactive)
same,GI50,[36],> 100 µM (inactive)
same,GI50,[38],> 100 µM (inactive)
same,GI50,[39],> 100 µM (inactive)
same,GI50,[40],> 100 µM (inactive)
same,GI50,[41],> 100 µM (inactive)
same,GI50,[42],> 100 µM (inactive)
same,GI50,[43],> 100 µM (inactive)
same,GI50,[44],> 100 µM (inactive)
same,GI50,[45],> 100 µM (inactive)
same,GI50,[46],> 100 µM (inactive)
same,GI50,[47],> 100 µM (inactive)
same,GI50,[48],> 100 µM (inactive)
same,GI50,[49],> 100 µM (inactive)
same,GI50,[50],7.93 µM (inactive)
same,GI50,[51],> 100 µM (inactive)
same,GI50,[52],> 100 µM (inactive)
same,GI50,[53],> 100 µM (inactive)
same,GI50,[54],> 100 µM (inactive)
same,GI50,[55],> 100 µM (inactive)
same,GI50,[56],> 100 µM (inactive)
same,GI50,[57],> 100 µM (inactive)
